Measurements from ChEMBL document CHEMBL3763135, “Synthesis and evaluation of thiophene-based guanylhydrazones (iminoguanidines) efficient against panel of voriconazole-resistant fungal isolates” (Bioorg Med Chem, 2016).
Activity calls are given as the source filed them. The calls are words filed in the database; no cut-off is given here.

Experiments:
[1] = test system: Candida albicans; assay: Antifungal activity against Candida albicans ATCC 10231 by broth dilution method; type: functional
[2] = test system: Candida albicans; assay: Antifungal activity against Candida albicans CA5 by broth dilution method; type: functional
[3] = test system: Candida parapsilosis; assay: Antifungal activity against Candida parapsilosis C27 by broth dilution method; type: functional; conditions: Lodderomyces parapsilosis
[4] = test system: Fusarium oxysporum; assay: Antifungal activity against Fusarium oxysporum AB18 by broth dilution method; type: functional
[5] = test system: Microsporum canis; assay: Antifungal activity against Microsporum canis DMT2 by broth dilution method; type: functional
[6] = test system: Trichophyton mentagrophytes; assay: Antifungal activity against Trichophyton mentagrophytes DMT4 by broth dilution method; type: functional
[7] = test system: MRC5; assay: Cytotoxicity against human MRC5 cells after 48 hrs by MTT assay; type: cell-based; conditions: MRC5, 48 h
[8] = test system: Candida albicans; assay: Antifungal activity against Candida albicans CA5 assessed as fungal growth at sub-MIC measured after 24 hrs by time-kill dependence-based spectrophotometric analysis relative to DMSO control; type: functional, organism-based
[9] = Induction of membrane damage in PC/PS/E liposome assessed as calcein release at MIC after 30 mins by fluorescence-based liposome leakage assay; type: functional
[10] = test system: Candida albicans; assay: Induction of DNA intercalation with Candida albicans genomic DNA at 25 ug/ml after 12 hrs by ethidium bromide staining based gel electrophoresis method
[11] = test system: Pichia kudriavzevii; assay: Antibiofilm activity against Pichia kudriavzevii ATCC 34135 assessed as disruption of preformed biofilm after 24 hrs by concanavalin A-FITC-staining based fluorescence microscopic analysis; type: functional
[12] = Toxicity against zebrafish embryo assessed as dead embryos at 50 ug/ml measured at 96 hrs post fertilization by inverted microscopic analysis; type: organism-based, Danio rerio; conditions: read-out: Activity
[13] = Toxicity against zebrafish embryo assessed as dead embryos at 10 ug/ml measured at 96 hrs post fertilization by inverted microscopic analysis; type: organism-based, Danio rerio; conditions: read-out: Activity
[14] = Toxicity against zebrafish embryo assessed as dead embryos at 5 ug/ml measured at 96 hrs post fertilization by inverted microscopic analysis; type: organism-based, Danio rerio; conditions: read-out: Activity
[15] = Toxicity against zebrafish embryo assessed as dead embryos at 2.5 ug/ml measured at 96 hrs post fertilization by inverted microscopic analysis; type: organism-based, Danio rerio; conditions: read-out: Activity
[16] = species on record: Danio rerio; assay: Toxicity against zebrafish embryo assessed as teratogenic embryos at 50 ug/ml measured at 96 hrs post fertilization by inverted microscopic analysis; type: organism-based; conditions: in vivo
[17] = species on record: Danio rerio; assay: Toxicity against zebrafish embryo assessed as teratogenic embryos at 25 ug/ml measured at 96 hrs post fertilization by inverted microscopic analysis; type: organism-based; conditions: in vivo
[18] = species on record: Danio rerio; assay: Toxicity against zebrafish embryo assessed as teratogenic embryos at 10 ug/ml measured at 96 hrs post fertilization by inverted microscopic analysis; type: organism-based; conditions: in vivo
[19] = species on record: Danio rerio; assay: Toxicity against zebrafish embryo assessed as effect on tail tip at 10 ug/ml measured at 96 hrs post fertilization by inverted microscopic analysis; type: organism-based; conditions: in vivo
[20] = species on record: Danio rerio; assay: Toxicity against zebrafish embryo assessed as effect on tail tip at 2.5 ug/ml measured at 96 hrs post fertilization by inverted microscopic analysis; type: organism-based; conditions: in vivo
[21] = species on record: Danio rerio; assay: Toxicity against zebrafish embryo assessed as growth retardation at 10 ug/ml measured at 96 hrs post fertilization by inverted microscopic analysis; type: organism-based; conditions: in vivo
[22] = species on record: Danio rerio; assay: Toxicity against zebrafish embryo assessed as growth retardation at 2.5 ug/ml measured at 96 hrs post fertilization by inverted microscopic analysis; type: organism-based; conditions: in vivo
[23] = Toxicity against zebrafish embryo measured at 96 hrs post fertilization by inverted microscopic analysis; type: organism-based, Danio rerio; conditions: zebrafish embryos
[24] = species on record: Danio rerio; assay: Toxicity against zebrafish embryo assessed as normal embryos at 50 ug/ml measured at 96 hrs post fertilization by inverted microscopic analysis; type: organism-based; conditions: in vivo
[25] = species on record: Danio rerio; assay: Toxicity against zebrafish embryo assessed as normal embryos at 25 ug/ml measured at 96 hrs post fertilization by inverted microscopic analysis; type: organism-based; conditions: in vivo
[26] = species on record: Danio rerio; assay: Toxicity against zebrafish embryo assessed as normal embryos at 10 ug/ml measured at 96 hrs post fertilization by inverted microscopic analysis; type: organism-based; conditions: in vivo
[27] = species on record: Danio rerio; assay: Toxicity against zebrafish embryo assessed as effect on notochord at 10 ug/ml measured at 96 hrs post fertilization by inverted microscopic analysis; type: organism-based; conditions: in vivo
[28] = species on record: Danio rerio; assay: Toxicity against zebrafish embryo assessed as effect on notochord at 2.5 ug/ml measured at 96 hrs post fertilization by inverted microscopic analysis; type: organism-based; conditions: in vivo
[29] = species on record: Danio rerio; assay: Toxicity against zebrafish embryo assessed as effect on eyes at 10 ug/ml measured at 96 hrs post fertilization by inverted microscopic analysis; type: organism-based; conditions: in vivo
[30] = species on record: Danio rerio; assay: Toxicity against zebrafish embryo assessed as effect on eyes at 5 ug/ml measured at 96 hrs post fertilization by inverted microscopic analysis; type: organism-based; conditions: in vivo
[31] = species on record: Danio rerio; assay: Toxicity against zebrafish embryo assessed as effect on eyes at 2.5 ug/ml measured at 96 hrs post fertilization by inverted microscopic analysis; type: organism-based; conditions: in vivo
[32] = species on record: Danio rerio; assay: Toxicity against zebrafish embryo assessed as effect on otoliths at 10 ug/ml measured at 96 hrs post fertilization by inverted microscopic analysis; type: organism-based; conditions: in vivo
[33] = species on record: Danio rerio; assay: Toxicity against zebrafish embryo assessed as effect on otoliths at 5 ug/ml measured at 96 hrs post fertilization by inverted microscopic analysis; type: organism-based; conditions: in vivo
[34] = species on record: Danio rerio; assay: Toxicity against zebrafish embryo assessed as effect on otoliths at 2.5 ug/ml measured at 96 hrs post fertilization by inverted microscopic analysis; type: organism-based; conditions: in vivo
[35] = test system: Danio rerio; assay: Toxicity against zebrafish embryo assessed as pericardial edema at 5 ug/ml measured at 96 hrs post fertilization by inverted microscopic analysis; type: organism-based; conditions: in vivo
[36] = test system: Danio rerio; assay: Toxicity against zebrafish embryo assessed as yolk edema at 10 ug/ml measured at 96 hrs post fertilization by inverted microscopic analysis; type: organism-based; conditions: in vivo
[37] = test system: Danio rerio; assay: Toxicity against zebrafish embryo assessed as yolk edema at 2.5 ug/ml measured at 96 hrs post fertilization by inverted microscopic analysis; type: organism-based; conditions: in vivo
[38] = species on record: Danio rerio; assay: Toxicity against zebrafish embryo assessed as effect on heart beat at 5 ug/ml measured at 96 hrs post fertilization by inverted microscopic analysis; type: organism-based; conditions: in vivo
[39] = species on record: Danio rerio; assay: Toxicity against zebrafish embryo assessed as effect on heart beat at 2.5 ug/ml measured at 96 hrs post fertilization by inverted microscopic analysis; type: organism-based; conditions: in vivo
[40] = species on record: Danio rerio; assay: Toxicity against zebrafish embryo assessed as effect on blood circulation at 10 ug/ml measured at 96 hrs post fertilization by inverted microscopic analysis; type: organism-based; conditions: in vivo
[41] = species on record: Danio rerio; assay: Toxicity against zebrafish embryo assessed as effect on blood circulation at 5 ug/ml measured at 96 hrs post fertilization by inverted microscopic analysis; type: organism-based; conditions: in vivo
[42] = species on record: Danio rerio; assay: Toxicity against zebrafish embryo assessed as effect on blood circulation at 2.5 ug/ml measured at 96 hrs post fertilization by inverted microscopic analysis; type: organism-based; conditions: in vivo
[43] = species on record: Danio rerio; assay: Toxicity against zebrafish embryo assessed as unhatched embryos at 10 ug/ml measured at 96 hrs post fertilization by inverted microscopic analysis; type: organism-based; conditions: in vivo
[44] = species on record: Danio rerio; assay: Toxicity against zebrafish embryo assessed as head malformation at 10 ug/ml measured at 96 hrs post fertilization by inverted microscopic analysis; type: organism-based; conditions: in vivo
[45] = species on record: Danio rerio; assay: Toxicity against zebrafish embryo assessed as head malformation at 5 ug/ml measured at 96 hrs post fertilization by inverted microscopic analysis; type: organism-based; conditions: in vivo
[46] = species on record: Danio rerio; assay: Toxicity against zebrafish embryo assessed as head malformation at 2.5 ug/ml measured at 96 hrs post fertilization by inverted microscopic analysis; type: organism-based; conditions: in vivo
[47] = species on record: Danio rerio; assay: Toxicity against zebrafish embryo assessed as skeletal deformities at 10 ug/ml measured at 96 hrs post fertilization by inverted microscopic analysis; type: organism-based; conditions: in vivo
[48] = species on record: Danio rerio; assay: Toxicity against zebrafish embryo assessed as skeletal deformities at 2.5 ug/ml measured at 96 hrs post fertilization by inverted microscopic analysis; type: organism-based; conditions: in vivo

## Cc1ccc(-c2ccc(/C=N/NC(=N)N)s2)cc1.Cl
[1]
  MIC: 0.9 mg/L
[2]
  MIC: 0.5 mg/L
[3]
  MIC: 3.9 mg/L
[4]
  MIC: 7.8 mg/L
[5]
  MIC: 1.56 mg/L
[6]
  MIC: 1.56 mg/L
[7]
  IC50: 2.5 mg/L
[8]
  Activity: inactive
[9]
  Activity: 7%
[10]
  Activity: Active
[11]
  MBEC: 250 µg/mL
[12]
  mortality at 96 h, 50 ug/ml: 100%
[13]
  mortality at 96 h, 10 ug/ml: 50%
[14]
  mortality at 96 h, 5 ug/ml: 20%
[15]
  mortality at 96 h, 2.5 ug/ml: 10%
[16]
  Activity: 0%
[17]
  Activity: 0%
[18]
  Activity: 50%
[19]
  Activity: 0%
[20]
  Activity: 0%
[21]
  Activity: 100%
[22]
  Activity: 0%
[23]
  LC50 at 96 h: 8.2 mg/L
[24]
  Activity: 0%
[25]
  Activity: 0%
[26]
  Activity: 0%
[27]
  Activity: 0%
[28]
  Activity: 0%
[29]
  Activity: 100%
[30]
  Activity: 0%
[31]
  Activity: 0%
[32]
  Activity: 100%
[33]
  Activity: 62.5%
[34]
  Activity: 0%
[35]
  Activity: 100%
[36]
  Activity: 0%
[37]
  Activity: 0%
[38]
  Activity: 0%
[39]
  Activity: 0%
[40]
  Activity: 0%
[41]
  Activity: 0%
[42]
  Activity: 0%
[43]
  Activity: 0%
[44]
  Activity: 100%
[45]
  Activity: 100%
[46]
  Activity: 0%
[47]
  Activity: 6.67%
[48]
  Activity: 0%
